Measurements from patent US11780832B2, “Lactivicin compounds, their preparation and use as antibacterial agents” (priority 2021, dated 2023).
Converted amounts (≈) assume the structure as drawn.

Assays:
Assay in all cases: MIC, CLSI broth microdilution
Type in all cases: cell-based
[1] = test system: Acinetobacter baumannii ATCC 19606; details: ATCC19606
Experimental: (§1) Gram-negative and Gram-positive bacterial strains used during the in vitro minimum inhibitory concentration (MIC) determination were obtained either from the American Type Culture Collection (ATCC) or from clinical specimens. All strains were characterized genotypically and the respective antibiotic resistance markers for each strain were identified.
(§2) Isolates were sub-cultured onto appropriate media and stocked in skim milk at −80° C. Following two subcultures from frozen stock, in vitro antimicrobial susceptibility testing was performed using the Clinical and Laboratory Standards Institute (CLSI) broth microdilution method. Briefly, fresh cultures were suspended in culture media to give a final stock inoculum size of 5×10^7 colony forming units per milliliter of broth (CFU/mL). […] 100 μL of the stock solutions were added to the first wells in a 96-well plate and were then diluted using a 2-fold dilution method to give a range of 32-0.025 μg/mL. 100 μL of the bacterial suspensions were then added to the 96-well plates to give a final working inoculum size of 5×10^5 CFU/mL. The final compound concentration range was 16-0.0125 μg/mL. […] MICs for comparator agents were determined using custom-designed, in-house prepared 96-well broth microdilution panels.

[2] = test system: Serratia marcescens AmpC overexpressed
Experimental: as §1, §2

[3] = test system: Escherichia coli pSMART_Ecloacae_AmpC
Experimental: as §1, §2

[4] = test system: Klebsiella pneumoniae KPC-2; details: KPC2
Experimental: as §1, §2

[5] = test system: Escherichia coli SHV-12; details: SHV12
Experimental: as §1, §2

[6] = test system: Enterobacter cloacae species complex NDM-1
Experimental: as §1, §2

[7] = test system: Klebsiella oxytoca KPC-2, TEM-1; details: KPC-2, TEM-1, read-out: MIC
Experimental: as §1, §2

[8] = test system: Escherichia coli pSMART_Cfreundii_AmpC
Experimental: as §1, §2

[9] = test system: Klebsiella pneumoniae KPC-3; details: KPC3, KPC-3, read-out: MIC
Experimental: as §1, §2

[10] = test system: Escherichia coli ATCC 25922; details: ATCC25922
Experimental: as §1, §2

[11] = test system: Citrobacter freundii species complex OXA-181; details: Citrobacter freundii species complex, OXA-181; read-out: MIC
Experimental: as §1, §2

[12] = test system: Klebsiella aerogenes VIM-1, SHV-12
Experimental: as §1, §2

[13] = test system: Klebsiella pneumoniae SHV-12; details: SHV12, SHV-12, read-out: MIC
Experimental: as §1, §2

[14] = test system: Pseudomonas aeruginosa ATCC 27853; details: ATCC27853
Experimental: as §1, §2

[15] = test system: Escherichia coli CMY-2; details: CMY2
Experimental: as §1, §2

[16] = test system: Klebsiella pneumoniae OXA-163, OXA-1_OXA-30, SHV-1, TEM-1
Experimental: as §1, §2

[17] = test system: Escherichia coli Isogenic TEM-10
Experimental: as §1, §2

[18] = test system: Escherichia coli CTX-M-15; details: CTXM15
Experimental: as §1, §2

[19] = test system: Pseudomonas aeruginosa OprD negative
Experimental: as §1, §2

[20] = test system: Klebsiella pneumoniae OXA-48, SHV-1
Experimental: as §1, §2

[21] = test system: Serratia marcescens SME-2; details: SME2
Experimental: as §1, §2

[22] = test system: Escherichia coli Empty pSMART plasmid
Experimental: as §1, §2

[23] = test system: Pseudomonas aeruginosa AmpC overexpressed
Experimental: as §1, §2

[24] = test system: Escherichia coli Isogenic TEM-26
Experimental: as §1, §2

Row | SMILES | MIC [1] [µg/mL] | MIC [2] [µg/mL] | MIC [3] [µg/mL] | MIC [4] [µg/mL] | MIC [5] [µg/mL] | MIC [6] [µg/mL] | MIC [7] [µg/mL] | MIC [8] [µg/mL] | MIC [9] [µg/mL] | MIC [10] [µg/mL] | MIC [11] [µg/mL] | MIC [12] [µg/mL] | MIC [13] [µg/mL] | MIC [14] [µg/mL] | MIC [15] [µg/mL] | MIC [16] [µg/mL] | MIC [17] [µg/mL] | MIC [18] [µg/mL] | MIC [19] [µg/mL] | MIC [20] [µg/mL] | other results
1 | Nc1nc(/C(=N/OC2(C(=O)O)CCC(F)(Cl)CC2)C(=O)N[C@H]2CON(C3(C(=O)O)C[C@H](N4C(=O)c5cc(O)c(O)cc5C4=O)C(=O)O3)C2=O)cs1 (stereo partly drawn) [Cmpd 11, (4S)-2-[(4S)-4-{[(2Z)-2-(2-amino-1,3-thiazol-4-yl)-2-{[(1-carboxy-4-chloro-4-fluorocyclohexyl)oxy]imino}acetyl]amino}-3-oxo-1,2-oxazolidin-2-yl]-4-(5,6-dihydroxy-1,3-dioxo-1,3-dihydro-2H-isoindol-2-yl)-5-oxooxolane-2-carboxylic acid] | 0.25 (≈ 0.331 µM) | 0.06 (≈ 0.0795 µM) | 0.06 (≈ 0.0795 µM) | 0.03 (≈ 0.0397 µM) | 2 (≈ 2.65 µM) | 2 (≈ 2.65 µM) | ≤ 0.015 | 0.06 (≈ 0.0795 µM) | 0.06 (≈ 0.0795 µM) | 0.12 (≈ 0.159 µM) | 0.03 (≈ 0.0397 µM) | 0.12 (≈ 0.159 µM) | 0.03 (≈ 0.0397 µM) | 0.25 (≈ 0.331 µM) | 1 (≈ 1.32 µM) | 0.12 (≈ 0.159 µM) | 0.06 (≈ 0.0795 µM) | 2 (≈ 2.65 µM) | 0.25 (≈ 0.331 µM) | ≤ 0.015 | MIC [21]: 0.06 µg/mL (≈ 0.0795 µM); MIC [22]: ≤ 0.015 µg/mL; MIC [23]: 2 µg/mL (≈ 2.65 µM); MIC [24]: 0.03 µg/mL (≈ 0.0397 µM)
2 | Nc1nc(/C(=N/OC2(C(=O)O)CCC(Cl)(Cl)CC2)C(=O)N[C@H]2CON(C3(C(=O)O)C[C@H](N4C(=O)c5cc(O)c(O)cc5C4=O)C(=O)O3)C2=O)cs1 (stereo partly drawn) [Cmpd 12, (4S)-2-[(4S)-4-{[(2Z)-2-(2-amino-1,3-thiazol-4-yl)-2-{[(1-carboxy-4,4-dichlorocyclohexyl)oxy]imino}acetyl]amino}-3-oxo-1,2-oxazolidin-2-yl]-4-(5,6-dihydroxy-1,3-dioxo-1,3-dihydro-2H-isoindol-2-yl)-5-oxooxolane-2-carboxylic acid] | 0.25 (≈ 0.324 µM) | 0.25 (≈ 0.324 µM) | 0.06 (≈ 0.0778 µM) | 0.06 (≈ 0.0778 µM) | 2 (≈ 2.59 µM) | 2 (≈ 2.59 µM) | ≤ 0.015 | 0.06 (≈ 0.0778 µM) | 0.06 (≈ 0.0778 µM) | 0.25 (≈ 0.324 µM) | 0.03 (≈ 0.0389 µM) | 0.5 (≈ 0.648 µM) | 0.03 (≈ 0.0389 µM) | 0.25 (≈ 0.324 µM) | 1 (≈ 1.3 µM) | 0.12 (≈ 0.156 µM) | 0.06 (≈ 0.0778 µM) | 4 (≈ 5.18 µM) | 0.25 (≈ 0.324 µM) | ≤ 0.015 | MIC [21]: 0.12 µg/mL (≈ 0.156 µM); MIC [22]: 0.03 µg/mL (≈ 0.0389 µM); MIC [23]: 2 µg/mL (≈ 2.59 µM); MIC [24]: 0.06 µg/mL (≈ 0.0778 µM)
3 | Nc1nc(/C(=N/OC2(C(=O)O)CC3CCC(C2)O3)C(=O)N[C@H]2CON(C3(C(=O)O)C[C@H](N4C(=O)c5cc(O)c(O)cc5C4=O)C(=O)O3)C2=O)cs1 (stereo partly drawn) [Cmpd 13, 3-({(Z)-[1-(2-amino-1,3-thiazol-4-yl)-2-({(4S)-2-[(4S)-2-carboxy-4-(5,6-dihydroxy-1,3-dioxo-1,3-dihydro-2H-isoindol-2-yl)-5-oxooxolan-2-yl]-3-oxo-1,2-oxazolidin-4-yl}amino)-2-oxoethylidene]amino}oxy)-8-oxabicyclo[3.2.1]octane-3-carboxylic acid] | 0.12 (≈ 0.164 µM) | 0.12 (≈ 0.164 µM) | 0.06 (≈ 0.0821 µM) | 0.25 (≈ 0.342 µM) | 2 (≈ 2.74 µM) | 1 (≈ 1.37 µM) | 0.0149 (≈ 0.0204 µM) | 0.06 (≈ 0.0821 µM) | 0.06 (≈ 0.0821 µM) | 0.12 (≈ 0.164 µM) | 0.0149 (≈ 0.0204 µM) | 0.25 (≈ 0.342 µM) | 0.03 (≈ 0.0411 µM) | 0.25 (≈ 0.342 µM) | 0.5 (≈ 0.684 µM) | 0.12 (≈ 0.164 µM) | 0.03 (≈ 0.0411 µM) | 4 (≈ 5.47 µM) | 0.25 (≈ 0.342 µM) | 0.0149 (≈ 0.0204 µM) | MIC [21]: 0.25 µg/mL (≈ 0.342 µM); MIC [22]: 0.12 µg/mL (≈ 0.164 µM); MIC [23]: 1 µg/mL (≈ 1.37 µM); MIC [24]: 0.03 µg/mL (≈ 0.0411 µM)
4 | Nc1nc(/C(=N/OC2(C(=O)O)CC3CCC(C2)O3)C(=O)N[C@H]2CON(C3(C(=O)O)C[C@H](N4C(=O)c5cc(O)c(O)nc5C4=O)C(=O)O3)C2=O)cs1 (stereo partly drawn) [Cmpd 27, 3-({(Z)-[1-(2-amino-1,3-thiazol-4-yl)-2-({(4S)-2-[(4S)-2-carboxy-4-(2,3-dihydroxy-5,7-dioxo-5,7-dihydro-6H-pyrrolo[3,4-b]pyridin-6-yl)-5-oxooxolan-2-yl]-3-oxo-1,2-oxazolidin-4-yl}amino)-2-oxoethylidene]amino}oxy)-8-oxabicyclo[3.2.1]octane-3-carboxylic acid] | 1 (≈ 1.37 µM) | 0.5 (≈ 0.683 µM) | 0.25 (≈ 0.342 µM) | 0.06 (≈ 0.082 µM) | 8 (≈ 10.9 µM) | 2 (≈ 2.73 µM) | 0.0149 (≈ 0.0204 µM) | 0.25 (≈ 0.342 µM) | 0.12 (≈ 0.164 µM) | 0.5 (≈ 0.683 µM) | 0.12 (≈ 0.164 µM) | 0.12 (≈ 0.164 µM) | 0.12 (≈ 0.164 µM) | 4 (≈ 5.47 µM) | 4 (≈ 5.47 µM) | 0.25 (≈ 0.342 µM) | 0.25 (≈ 0.342 µM) | 8 (≈ 10.9 µM) | 2 (≈ 2.73 µM) | 0.03 (≈ 0.041 µM) | MIC [21]: 1 µg/mL (≈ 1.37 µM); MIC [22]: 0.25 µg/mL (≈ 0.342 µM); MIC [23]: 4 µg/mL (≈ 5.47 µM); MIC [24]: 0.12 µg/mL (≈ 0.164 µM)
5 | Nc1nc(/C(=N/OC2(C(=O)O)CCOCC2)C(=O)N[C@H]2CON(C3(C(=O)O)C[C@H](N4Cc5cc(O)c(O)cc5C4=O)C(=O)O3)C2=O)cs1 (stereo partly drawn) [Cmpd 29, 4-({(Z)-[1-(2-amino-1,3-thiazol-4-yl)-2-({(4S)-2-[(4S)-2-carboxy-4-(5,6-dihydroxy-1-oxo-1,3-dihydro-2H-isoindol-2-yl)-5-oxooxolan-2-yl]-3-oxo-1,2-oxazolidin-4-yl}amino)-2-oxoethylidene]amino}oxy)oxane-4-carboxylic acid] | 0.12 (≈ 0.174 µM) | 0.25 (≈ 0.362 µM) | 0.12 (≈ 0.174 µM) | 0.0149 (≈ 0.0216 µM) | 2 (≈ 2.9 µM) | 4 (≈ 5.79 µM) | 0.0149 (≈ 0.0216 µM) | 0.25 (≈ 0.362 µM) | 0.06 (≈ 0.0869 µM) | 0.5 (≈ 0.724 µM) | 0.12 (≈ 0.174 µM) | 0.25 (≈ 0.362 µM) | 0.06 (≈ 0.0869 µM) | 0.5 (≈ 0.724 µM) | 2 (≈ 2.9 µM) | 0.25 (≈ 0.362 µM) | 0.03 (≈ 0.0434 µM) | 2 (≈ 2.9 µM) | 0.5 (≈ 0.724 µM) | 0.03 (≈ 0.0434 µM) | MIC [21]: 0.25 µg/mL (≈ 0.362 µM); MIC [22]: 0.5 µg/mL (≈ 0.724 µM); MIC [23]: 2 µg/mL (≈ 2.9 µM); MIC [24]: 0.03 µg/mL (≈ 0.0434 µM)
